Results reported in PubChem BioAssay (NCI).
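Dose response: 5 concentrations. Exposure: 48 h. Format: 96-well plates. Endpoint: linear interpolation; highest concentration if not reached. Abbreviation: GI50, concentration required for 50% inhibition of growth. TGI marks complete inhibition of growth.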

Legend:
Assay in all cases: NCI anticancer screen, dose series, 48 h
TK-10 renal = tested on: TK-10 renal
MDA-MB-231 breast = tested on: MDA-MB-231 breast
DU-145 prostate = tested on: DU-145 prostate
OVCAR-4 ovarian = tested on: OVCAR-4 ovarian
K-562 leukemia = tested on: K-562 leukemia
BT-549 breast = tested on: BT-549 breast
SNB-19 CNS = tested on: SNB-19 CNS
MDA-MB-435 = tested on: MDA-MB-435
SN12C renal = tested on: SN12C renal
HT29 colon = tested on: HT29 colon
SF-539 CNS = tested on: SF-539 CNS
SF-295 CNS = tested on: SF-295 CNS
A498 renal = tested on: A498 renal
HCT-116 colon = tested on: HCT-116 colon
KM12 colon = tested on: KM12 colon
HL-60(TB) leukemia = tested on: HL-60(TB) leukemia
PC-3 prostate = tested on: PC-3 prostate
SF-268 CNS = tested on: SF-268 CNS
SNB-75 CNS = tested on: SNB-75 CNS
OVCAR-5 ovarian = tested on: OVCAR-5 ovarian
EKVX NSCLC = tested on: EKVX NSCLC
UACC-62 melanoma = tested on: UACC-62 melanoma
COLO 205 colon = tested on: COLO 205 colon
CCRF-CEM leukemia = tested on: CCRF-CEM leukemia
NCI-H522 lung = tested on: NCI-H522 lung
SK-OV-3 ovarian = tested on: SK-OV-3 ovarian
A549 NSCLC = tested on: A549 NSCLC
SR leukemia = tested on: SR leukemia
M14 melanoma = tested on: M14 melanoma
CAKI-1 renal = tested on: CAKI-1 renal
U251 CNS = tested on: U251 CNS
UACC-257 melanoma = tested on: UACC-257 melanoma
LOX IMVI melanoma = tested on: LOX IMVI melanoma
HCC-2998 colon = tested on: HCC-2998 colon
HS 578T breast = tested on: HS 578T breast
RXF 393 renal = tested on: RXF 393 renal
HOP-62 NSCLC = tested on: HOP-62 NSCLC
786-0 renal = tested on: 786-0 renal
HCT-15 colon = tested on: HCT-15 colon
NCI-H226 lung = tested on: NCI-H226 lung
SW-620 colon = tested on: SW-620 colon
HOP-92 NSCLC = tested on: HOP-92 NSCLC
SK-MEL-28 melanoma = tested on: SK-MEL-28 melanoma
UO-31 renal = tested on: UO-31 renal
SK-MEL-5 melanoma = tested on: SK-MEL-5 melanoma
IGROV1 ovarian = tested on: IGROV1 ovarian
OVCAR-3 ovarian = tested on: OVCAR-3 ovarian
ACHN renal = tested on: ACHN renal
MALME-3M melanoma = tested on: MALME-3M melanoma
RPMI-8226 leukemia = tested on: RPMI-8226 leukemia
NCI-H460 lung = tested on: NCI-H460 lung
MOLT-4 leukemia = tested on: MOLT-4 leukemia
MCF7 breast = tested on: MCF7 breast
NCI-H23 lung = tested on: NCI-H23 lung

`C[n+]1c2ccccc2c(Nc2ccc(N3CCCCC3)cc2)c2[nH]c3ccccc3c21` was tested, and the GI50 (TK-10 renal) was 1.23 µM, the TGI (TK-10 renal) was 2.6 µM and the GI50 (MDA-MB-231 breast) was 0.327 µM. It also gave a TGI (MDA-MB-231 breast) of 1.7 µM, a GI50 (DU-145 prostate) of 0.272 µM and a TGI (DU-145 prostate) of 0.802 µM. It also gave a GI50 (OVCAR-4 ovarian) of 0.326 µM, a TGI (OVCAR-4 ovarian) of 1.23 µM and a GI50 (K-562 leukemia) of 0.155 µM. The TGI (K-562 leukemia) was 0.353 µM, the GI50 (BT-549 breast) was 1.16 µM and the TGI (BT-549 breast) was 2.45 µM. The GI50 (SNB-19 CNS) was 0.427 µM, the TGI (SNB-19 CNS) was 1.76 µM and the GI50 (MDA-MB-435) was 0.442 µM. It also gave a TGI (MDA-MB-435) of 1.65 µM, a GI50 (SN12C renal) of 0.212 µM and a TGI (SN12C renal) of 1.24 µM. For the same molecule, the GI50 (HT29 colon) was 0.191 µM, the TGI (HT29 colon) was 0.656 µM and the GI50 (SF-539 CNS) was 0.617 µM. The TGI (SF-539 CNS) was 1.9 µM, the GI50 (SF-295 CNS) was 0.379 µM and the TGI (SF-295 CNS) was 1.55 µM. For the same molecule, the GI50 (A498 renal) was 0.234 µM, the TGI (A498 renal) was 0.843 µM and the GI50 (HCT-116 colon) was 0.132 µM. It also gave a TGI (HCT-116 colon) of 0.361 µM, a GI50 (KM12 colon) of 0.281 µM and a TGI (KM12 colon) of 0.958 µM. It also gave a GI50 (HL-60(TB) leukemia) of 0.0282 µM, a TGI (HL-60(TB) leukemia) of 0.192 µM and a GI50 (PC-3 prostate) of 0.154 µM. For the same molecule, the TGI (PC-3 prostate) was 0.416 µM, the GI50 (SF-268 CNS) was 0.46 µM and the TGI (SF-268 CNS) was 1.62 µM. It also gave a GI50 (SNB-75 CNS) of 0.522 µM, a TGI (SNB-75 CNS) of 1.91 µM and a GI50 (OVCAR-5 ovarian) of 0.658 µM. The TGI (OVCAR-5 ovarian) was 2.09 µM, the GI50 (EKVX NSCLC) was 0.459 µM and the TGI (EKVX NSCLC) was 1.93 µM. For the same molecule, the GI50 (UACC-62 melanoma) was 0.194 µM, the TGI (UACC-62 melanoma) was 0.861 µM and the GI50 (COLO 205 colon) was 0.14 µM. For the same molecule, the TGI (COLO 205 colon) was 0.344 µM, the GI50 (CCRF-CEM leukemia) was 0.0832 µM and the TGI (CCRF-CEM leukemia) was 0.312 µM. The TGI (NCI-H522 lung) was 0.0908 µM, the GI50 (SK-OV-3 ovarian) was 0.515 µM and the TGI (SK-OV-3 ovarian) was 1.85 µM. For the same molecule, the GI50 (A549 NSCLC) was 0.166 µM, the TGI (A549 NSCLC) was 0.549 µM and the GI50 (SR leukemia) was 3.79 µM. For the same molecule, the TGI (SR leukemia) was > 100 µM, the GI50 (M14 melanoma) was 0.346 µM and the TGI (M14 melanoma) was 1.47 µM. The GI50 (CAKI-1 renal) was 0.114 µM, the TGI (CAKI-1 renal) was 1.06 µM and the GI50 (U251 CNS) was 0.205 µM. The TGI (U251 CNS) was 0.67 µM, the GI50 (UACC-257 melanoma) was 0.417 µM and the TGI (UACC-257 melanoma) was 1.07 µM. It also gave a GI50 (LOX IMVI melanoma) of 0.144 µM, a TGI (LOX IMVI melanoma) of 0.34 µM and a GI50 (HCC-2998 colon) of 0.185 µM. It also gave a TGI (HCC-2998 colon) of 0.619 µM, a GI50 (HS 578T breast) of 0.231 µM and a TGI (HS 578T breast) of 0.705 µM. For the same molecule, the GI50 (RXF 393 renal) was 0.174 µM, the TGI (RXF 393 renal) was 0.347 µM and the GI50 (HOP-62 NSCLC) was 0.456 µM. It also gave a TGI (HOP-62 NSCLC) of 1.81 µM, a GI50 (786-0 renal) of 0.456 µM and a TGI (786-0 renal) of 1.69 µM. It also gave a GI50 (HCT-15 colon) of 0.154 µM, a TGI (HCT-15 colon) of 0.324 µM and a GI50 (NCI-H226 lung) of 0.324 µM. For the same molecule, the TGI (NCI-H226 lung) was 1.8 µM, the GI50 (SW-620 colon) was 0.184 µM and the TGI (SW-620 colon) was 0.726 µM. For the same molecule, the GI50 (HOP-92 NSCLC) was 0.264 µM, the TGI (HOP-92 NSCLC) was 1.2 µM and the GI50 (SK-MEL-28 melanoma) was 0.418 µM. For the same molecule, the TGI (SK-MEL-28 melanoma) was 1.36 µM, the GI50 (UO-31 renal) was 0.144 µM and the TGI (UO-31 renal) was 0.833 µM. The GI50 (SK-MEL-5 melanoma) was 0.333 µM, the TGI (SK-MEL-5 melanoma) was 1.46 µM and the GI50 (IGROV1 ovarian) was 0.229 µM. For the same molecule, the TGI (IGROV1 ovarian) was 1.18 µM, the GI50 (OVCAR-3 ovarian) was 0.185 µM and the TGI (OVCAR-3 ovarian) was 0.368 µM. It also gave a GI50 (ACHN renal) of 0.223 µM, a TGI (ACHN renal) of 1.01 µM and a GI50 (MALME-3M melanoma) of 0.34 µM. For the same molecule, the TGI (MALME-3M melanoma) was 1.53 µM, the GI50 (RPMI-8226 leukemia) was 0.081 µM and the TGI (RPMI-8226 leukemia) was 0.262 µM. For the same molecule, the GI50 (NCI-H460 lung) was 0.152 µM, the TGI (NCI-H460 lung) was 0.48 µM and the GI50 (MOLT-4 leukemia) was 0.0536 µM. For the same molecule, the TGI (MOLT-4 leukemia) was 1.18 µM, the GI50 (MCF7 breast) was 0.152 µM and the TGI (MCF7 breast) was 0.524 µM. It also gave a GI50 (NCI-H23 lung) of 0.349 µM and a TGI (NCI-H23 lung) of 1.68 µM.

`Cc1nc2cc(Nc3nc(N4CCCCC4)nc(N4CCOCC4)n3)ccc2n1Cc1ccccc1` was tested, and the GI50 (DU-145 prostate) was 3.48 µM, the TGI (DU-145 prostate) was > 100 µM and the GI50 (K-562 leukemia) was 6.71 µM. For the same molecule, the TGI (K-562 leukemia) was > 100 µM, the GI50 (BT-549 breast) was 2.51 µM and the TGI (BT-549 breast) was 7.1 µM. The GI50 (MDA-MB-435) was 3.41 µM, the TGI (MDA-MB-435) was > 100 µM and the GI50 (SF-539 CNS) was > 100 µM. For the same molecule, the TGI (SF-539 CNS) was > 100 µM, the GI50 (HL-60(TB) leukemia) was 2.16 µM and the TGI (HL-60(TB) leukemia) was 5.49 µM. The GI50 (SR leukemia) was 3.57 µM, the TGI (SR leukemia) was > 100 µM and the GI50 (M14 melanoma) was 3.92 µM. For the same molecule, the TGI (M14 melanoma) was > 100 µM, the GI50 (UACC-257 melanoma) was 3.15 µM and the TGI (UACC-257 melanoma) was > 100 µM. The GI50 (HCC-2998 colon) was 3.98 µM, the TGI (HCC-2998 colon) was > 100 µM and the GI50 (HS 578T breast) was 2.71 µM. The TGI (HS 578T breast) was > 100 µM, the GI50 (786-0 renal) was 1.78 µM and the TGI (786-0 renal) was 3.23 µM. For the same molecule, the GI50 (HCT-15 colon) was 2.84 µM, the TGI (HCT-15 colon) was > 100 µM and the GI50 (NCI-H226 lung) was 4.06 µM. For the same molecule, the TGI (NCI-H226 lung) was > 100 µM, the GI50 (SW-620 colon) was 3.19 µM and the TGI (SW-620 colon) was > 100 µM. The GI50 (IGROV1 ovarian) was 3.76 µM, the TGI (IGROV1 ovarian) was > 100 µM and the GI50 (MOLT-4 leukemia) was 3.6 µM. For the same molecule, the TGI (MOLT-4 leukemia) was > 100 µM, the GI50 (MCF7 breast) was 3.28 µM and the TGI (MCF7 breast) was > 100 µM.
